In patent US20210171577A1, “COMBINATORIAL ANTIBIOTIC DERIVATIVES BASED ON SUPRAMOLECULAR STRUCTURES” (priority 2017, published 2021):
“And” between values parts separate entries of the source, which are not always exact repeats. Equal values may be shown once. Marks after values point to notes of the source that are not given here.

Key:
[1] = tested on: multiresistant strains of microorganisms and fungi; assay: Antimicrobial activity in vitro, collection of multiresistant test strains (summary statements); format: cell-based; conditions: resistant fungal strains
[2] = tested on: Escherichia coli IMI2001; assay: Neutropenic peritonitis/sepsis model in mice, dose response (Example 5); format: in vivo, NMRI mice
Experimental: The objective of this study was to study the dose response relationship after intravenous (iv) administration of a single dose of SKPA (CBT) in the range of 0.1612 mg/kg. The effect was investigated against resistant E. coli IMI2001 in a neutropenic peritonitis model. Administration of meropenem at a dose of 40 mg/kg was included as a positive control group. The number of colonies in the blood and peritoneal fluid was determined 5 hours after administration. The mouse peritonitis/sepsis model is a well-known model for antimicrobial activity studies as described by N. FrimodtMoller and J. D.
30 female outbred NMRI mice, 2530 grams (Harlan Scandinavia).
Escherichia coli IMI2001 from IMINAMN, Kharkov, Ukraine. Clinical isolate from a human wound from 2003 with multidrug resistance (to ampicillin, ceftazidime, aztreonam, gentamicin, ciprofloxacin).
ASCA in Ringer's acetate, pH 6, 1.2 mg/ml, 6.0 ml. The solution was stored at 4° C. until use. The analyzes of the compositions used for administration were performed at the end of the phase of the study conducted on live animals, and the following results were obtained in these analyzes.
(§1) The introduction of cyclophosphamide to mice. Neutropenia was induced in mice by injection of 0.5 ml of cyclophosphamide solution intraperitoneally 4 days (200 mg/kg) and 1 day (100 mg/kg) before infection.
(§2) Infection of mice. Fresh E. coli IMI2001 colonies obtained overnight in an agar plate and 5% horse blood were suspended and diluted in sterile saline to approximately 2×10^6 CFU/ml. One hour before the start of administration (time point 1 h), mice were intraperitoneally infected with 0.5 ml of a suspension of E. coli in the lateral lower quadrant of the abdomen. Approximately 0.51 hours after the administration, 45 μl of neurofen (20 mg ibuprofen per ml, corresponding to 30 mg/kg) was orally administered to the mice as a painkiller.
The introduction of drugs to mice. Mice were given a single intravenous administration of CBT, meropenem, or excipient into the lateral tail vein for approximately 30 seconds in a volume of 10 ml/kg at time 0 h (see Table 1). The dose determination was based on an average body weight of 30 g. Mice with a body weight of 2832 g were injected with 0.30 ml of solution. Mice weighing 2728 g were injected with 0.25 ml of the solution and mice weighing 32.136 g were injected with 0.35 ml of the solution.
T indicates time relative to administration. The numbers in the columns of the sampling represent the identification numbers of mice. Clinical scoring of mice. Mice were observed during the study and assigned them scores from 0 to 5 depending on their behavior and clinical signs.
The number of colonies was determined in blood and peritoneal fluid for 0 and 5 hours. Mice were anesthetized with CO2+O2 and blood was taken from an axillary incision into Eppendorf tubes coated with ethylene diamine tetraacetic acid (EDTA). Mice were sacrificed immediately after blood sampling, and a total of 2 ml of sterile physiological saline was administered intraperitoneally and a gentle massage of the abdomen was performed until it was opened and the fluid samples were pipetted. Then, each sample was diluted 10 times in physiological saline and drops of 20 μl were applied to blue agar plates. All agar plates were incubated for 1822 hours at 35° C. in air.
Results. The number of colonies was determined at the beginning of administration and 5 hours after administration. Before the calculations, a log 10 transformation of the CFU count was performed.
Dose response curves (data not shown) were calculated in GraphPad Prism using a sigmoid dose response curve (variable angle). […] The maximum effect of CBT, Emax, was determined as the difference in log CFU in the absence of response and at the maximum response. The lack of response was characterized as the number of colonies at a level determined in mice that were injected with vehicle. […]

[3] = tested on: Escherichia coli IMI2001; assay: Peritonitis/sepsis model in neutropenic NMRI mice, effect over time at 7.5 mg/kg (Example 6); format: in vivo
Experimental: The objective of this study was to investigate the effectiveness of CPR in vivo after intravenous (iv) administration of a single dose of 7.5 mg/kg. The effect was tested against Escherichia coli IMI2001 in a peritonitis model in neutropenia NMRI mice to avoid the use of mucin, which is commonly used in a mouse peritonitis model. Neutropenia was induced in mice by injection of cyclophosphamide. Administration of meropenem at a dose of 40 mg/kg was included as a positive control group and vehicle administration was included as a negative control group. The number of colonies in peritoneal fluid and blood was determined 2 and 5 hours after administration.
30 female outbred mice NMRI, 2832 grams (Kiev).
Escherichia coli IMI2001 from IMINAMN, Ukraine, Kharkov. Clinical isolate from a human wound from 2013 with multidrug resistance (to ampicillin, ceftazidime, aztreonam, gentamicin, ciprofloxacin).
PPC in Ringer's acetate, pH 6, 1.2 ml, 0.75 mg/ml.
as §1
as §2, with “AID #172” for “IMI2001”, “2.5 h” for “Approximately 0.51 hours”, “administration with significant clinical signs of infection, mice were orally administered” for “the administration,”, “which corresponded” for “corresponding”, “mg/kg)” for “mg/kg) was orally administered to the mice”
Score mice. At each sampling in mice, a clinical assessment of the clinical signs of infection was performed.
The introduction of drugs to mice. The mice were given a single intravenous administration of CPR, meropenem, or excipient into the lateral tail vein for approximately 30 seconds at a time point of 0 h (see Table 6). The dose determination was based on an average body weight of 30 g. Mice with a body weight of 2832 g were injected with 0.30 ml of solution. Mice weighing 2728 g were injected with 0.25 ml of the solution and mice weighing 32.136 g were injected with 0.35 ml of the solution. Mice 17 accidentally injected 0.35 ml, despite the fact that its body weight was 29.5 g.
Fence samples. The number of colonies was determined in blood and peritoneal fluid at 0, 2 and 5 hours after administration according to Table 6.
Mice were anesthetized with CO2+O2 and blood sampling was performed from a section in the axillary region. The mice were sacrificed by cervical dislocation and a total of 2 ml of sterile physiological saline was injected intraperitoneally and a gentle massage of the abdomen was performed, then it was opened and a sample of the fluid was pipetted. Each sample was diluted 10 times in saline and drops of 20 μl were applied to plates with blood agar. All agar plates were incubated for 1822 hours at 35° C. in air.

[4] = tested on: Escherichia coli IMI2001; assay: Model of hip (femoral) infection with neutropenia in mice (Example 7); format: in vivo, NMRI mice
Experimental: Introduction The objective of this study was to study the dose response after intravenous (iv) administration of a single dose of CPR in the range of 0.1612 mg/kg. The effect was investigated against E. coli IMI2001 in a model of femoral infection with neutropenia. Administration of meropenem at a dose of 40 mg/kg was included as a positive control group. The number of colonies in the hips was determined 5 hours after administration. The hip infection model is a well-known model for studies of the antimicrobial effect and tissue penetration, as described by S. Gudmundsson & N. Erlensdottir: Handbook of Animal Models of Infection (1999), ed. by O. Zak & M. A. Sande, Academic Press, San Diego, US, and some other publications. See the review by D. Andes & C. Craig: Animal model pharmacokinetics and pharmacodynamics: a critical review. International Journal of Antimicrobial Agents, 19 (4): 261268.
Materials and methods. 40 female outbred mice NMRI, 2530 grams (Kiev, Ukraine). Escherichia coli IMI2001 from IMINAMN, Kharkov, Ukraine. Clinical isolate from a human wound from […] with multidrug resistance (to ampicillin, ceftazidime, aztreonam, gentamicin, ciprofloxacin).
PPC in Ringer's acetate, pH 6, 1.2 mg/ml, 6.0 ml. The solution was stored at 4° C. until use. The analyzes of the compositions used for administration were performed at the end of the phase of the study conducted on live animals, and the following results were obtained in these analyzes.
as §1
Infection of mice. […]
The number of colonies was determined in the hips at 0 and 5 h. […]
Results. The number of colonies was determined at the beginning of administration and 5 hours after administration. […] CFU/ml in the infectious material was determined to be 7.35 log 10, which corresponds to […]. […]

[5] = Meropenem 40 mg/kg single iv, T = 5 h, individual mice
[6] = Meropenem 40 mg/kg single iv, T = 5 h, p < 0.01 vs filler
[7] = Meropenem 40 mg/kg single iv, individual mice, score 0-5
[8] = Meropenem 40 mg/kg single iv, 2 h
[9] = Meropenem 40 mg/kg single iv, 5 h
[10] = Meropenem 40 mg/kg single iv, T = 2 h, individual mice

C[C@@H]1[C@H](O)[C@@H](C)/C=C/C=C/CC/C=C/C=C/C=C/C=C/C(O[C@H]2O[C@H](C)[C@@H](O)[C@H](N)[C@@H]2O)CC2O[C@](O)(CC(O)C(O)CCC(O)CC(O)CC(O)CC(=O)O[C@H]1C)CC(O)C2C(=O)O (stereo partly drawn) [nystatin]
antifungal activity [1]: did not exert antifungal activity

C[C@@H]1[C@H](O)[C@@H](C)/C=C/C=C/C=C/C=C/C=C/C=C/C=C/[C@H](O[C@@H]2O[C@H](C)[C@@H](O)[C@H](N)[C@@H]2O)C[C@@H]2O[C@](O)(C[C@@H](O)C[C@@H](O)[C@H](O)CC[C@@H](O)C[C@@H](O)CC(=O)O[C@H]1C)C[C@H](O)[C@H]2C(=O)O [amphotericin]
antifungal activity [1]: did not exert antifungal activity

C[C@@H](O)[C@H]1C(=O)N2C(C(=O)O)=C(S[C@@H]3CN[C@H](C(=O)N(C)C)C3)[C@H](C)[C@H]12 [Meropenem, meropenem]
log10 CFU Blood [2, 5]: 2.48 log10 CFU and 1.70 log10 CFU and 2.95 log10 CFU | log10 CFU PF [2, 5]: 3.92 log10 CFU and 1.70 log10 CFU and 2.30 log10 CFU | log10 CFU Average in PF [2, 6]: 2.64 log10 CFU | log10 CFU Blood average ([2]; Meropenem 40 mg/kg single iv, T = 5 h, p < 0.05 vs filler): 2.38 log10 CFU | Clinical Score T = 5 h [2, 7]: 1 (2×) and 0 | CFU compared with excipient, blood (p<0.05) and peritoneal fluid (p<0.01) ([2]; meropenem 40 mg/kg iv, 5 h): significant decrease | Difference in CFU level compared with filler, blood [3, 8]: blood −0.82 log CFU/ml | Difference in CFU level compared with filler, peritoneum [3, 8]: 2 h: peritoneum −1.51 log CFU/ml | Difference in CFU level compared with filler, blood [3, 9]: blood −1.64 log CFU/ml | Difference in CFU level compared with filler, peritoneum [3, 9]: 5 h: peritoneum −1.51 log CFU/ml | log10 CFU Blood (group average) ([3]; Meropenem 40 mg/kg single iv, T = 2 h): 3.76 log10 CFU | log10 CFU Blood [3, 10]: 3.60 log10 CFU and 3.57 log10 CFU and 4.11 log10 CFU | log10 CFU PF [3, 10]: 4.12 log10 CFU and 3.40 log10 CFU and 4.24 log10 CFU | log10 CFU PF (group average) ([3]; Meropenem 40 mg/kg single iv, T = 2 h, p < 0.01 vs filler): 3.92 ** log10 CFU | log10 CFU Blood [3, 5]: 3.20 log10 CFU and 2.85 log10 CFU and 3.26 log10 CFU | log10 CFU PF [3, 5]: 4.38 log10 CFU and 4.00 log10 CFU and 4.26 log10 CFU | log10 CFU Blood (group average) [3, 6]: 3.10** log10 CFU | log10 CFU PF (group average) [3, 6]: 4.21 ** log10 CFU | Score T = 2 h [3, 7]: 1 | Score T = 5 h [3, 7]: 0 | significant decrease of CFU compared with filler group ([3]; meropenem 40 mg/kg, 2 hours after administration): only in the peritoneal fluid | CFU compared with filler group, blood and peritoneal fluid ([3]; meropenem 40 mg/kg, after 5 hours, p<0.01): significant decrease | log10 CFU, hip, The average ([4]; Meropenem 40 mg/kg single iv, T = 5 h): 4.25 log10 CFU | log10 CFU, hip ([4]; Meropenem 40 mg/kg single iv, T = 5 h, individual mice, smallest value of group excluded from average): 4.99 log10 CFU and 3.94 log10 CFU | CFU compared with vehicle, hip ([4]; meropenem 40 mg/kg iv, 5 h): definite but insignificant decrease
